Data published in US9970057B2, “Human invasion signature for prognosis of metastatic risk” (ALBERT EINSTEIN COLLEGE OF MEDICINE, INC., priority 2011, dated 2018).
Entries after “also recorded” stand apart in the source; their conditions may differ.

Columns and labels:
[1] = system: MDA-MB-231 tumors and patient-derived HT17 and HT39 breast tumors; experiment: intravasation assay (circulating tumor cells in blood); type: in vivo, SCID mice; conditions: injected intraperitoneally four hours prior to the experiments; MDA-MB-231, HT17 and HT39 tumors; vs vehicle or control IgG
Procedure: (§1) SB431542 was used, a small molecule specific inhibitor of the TGFβ receptor (14,38), which was injected into the tumor-bearing mice prior to measurements of invasion and intravasation. Invasion was measured by count of the total cells that chemotax and invade in the primary tumor towards a gradient source (EGF or FBS) with the in vivo invasion assay. Intravasation and dissemination was measured by count of the circulating tumor cells in the total blood of tumorbearing mice.
(§2) The inhibitors SB431542 (a small molecule specific inhibitor of the TGFβ receptor), NSC87877 (a small molecule specific inhibitor of PTPN11) were used, and a neutralizing antibody specific to human IL8 for the experiments. Because the focus of the study is migration and invasion, a drug treatment of only 4 hours was given to the mice before experimental assays so that an acute effect on migration can be measured without long-term effects on tumor growth. Invasion was measured by count of the total cells that chemotax and invade in the primary tumor towards a gradient source (EGF or FBS) with the in viva invasion assay. Intravasation and hematogenous dissemination was measured by count of the circulating tumor cells (CTCs) in the blood of tumor-bearing mice. […] No significant difference in overall cell death was observed by histology in the treated tumors with the four-hour acute treatments. […] As a negative control, an inhibitor to a gene was used that was not identified by the HIS, namely, MYC, a known oncogene recently identified as a master regulator of expression in “poor-outcome” cancer signatures. […] Most of the published signatures to date are isolated from whole patient samples, and therefore represent “whole-picture” information about the metastatic process, a summary of invasion, dissemination, and growth/proliferation. […]
(§3) Animal Models. […] The mice were monitored for growth for up to 9 months, at which time if a tumor was not visible they were euthanized. For the tumors that grew, in vivo invasion was measured, and then the tumor was used to passage to new mice (surgical procedure same as before). […]

[2] = system: MDA-MB-231 tumors and patient-derived HT17 and HT39 breast tumors; experiment: in vivo invasion assay in tumor-bearing mice; set-up: species or system SCID mice; conditions: injected intraperitoneally four hours prior to the experiments; EGF or FBS gradient; MDA-MB-231, HT17 and HT39 tumors; vs vehicle or control IgG
Procedure: as §1, §2, §3

[3] = system: MDA-MB-231 xenograft; experiment: BrdU incorporation (proliferation marker) in tumors; type: in vivo; conditions: MDA-MB-231 xenograft mice, acute treatment
Excerpt: FIG. 13A-13C. […] (15A). Schematic of experimental design for the inhibitor treatments. (15B). Representative images of immunostained tumors sections with BrdU antibody (black) and counterstained for nuclei (gray). (15C). Quantification of the above experiments is shown for 3 mice per group, and 10 random 40× images per mouse/tumor (excluding necrotic areas). Bars represent the average percentage of BrdU positive nuclei (black) over total (gray). Error bars: SEM. p-values by Student's t-test.
The inhibitors SB431542 (a small molecule specific inhibitor of the TGFβ receptor), NSC87877 (a small molecule specific inhibitor of PTPN11) were used, and a neutralizing antibody specific to human IL8 for the experiments. Because the focus of the study is migration and invasion, a drug treatment of only 4 hours was given to the mice before experimental assays so that an acute effect on migration can be measured without long-term effects on tumor growth. Invasion was measured by count of the total cells that chemotax and invade in the primary tumor towards a gradient source (EGF or FBS) with the in viva invasion assay. Intravasation and hematogenous dissemination was measured by count of the circulating tumor cells (CTCs) in the blood of tumor-bearing mice. […] No significant difference in overall cell death was observed by histology in the treated tumors with the four-hour acute treatments. […]

Structure (SMILES) | intravasation / tumor cell dissemination (circulating tumor cells in blood) [1] | in vivo invasion (total cells that chemotax and invade in the primary tumor towards a gradient source, cells per microneedle) [2] | BrdU incorporation (percentage of BrdU positive nuclei; proliferation in vivo) [3]
O=S(=O)(O)c1ccc2cc(N=Nc3cc(S(=O)(=O)O)c4cccnc4c3O)ccc2c1 [NSC87877, 8-Hydroxy-7-[(6-sulfo-2-naphthyl)azo]-5-quinolinesulfonic acid] | significantly abrogated; also recorded: significantly inhibited | significantly abrogated; also recorded: significantly inhibited | –
NC(=O)c1ccc(-c2nc(-c3ccc4c(c3)OCO4)c(-c3ccccn3)[nH]2)cc1 [SB431542, 4-[4-(1,3-benzodioxol-5-yl)-5-(2-pyridinyl)-1H-imidazol-2-yl]benzamide] | effectively abrogate; also recorded: significantly inhibited | effectively abrogate; also recorded: significantly inhibited | –
CCc1ccc(/C=C2/SC(=S)NC2=O)cc1 [10058-F4] | did not significantly alter | did not significantly alter | significantly reduced; also recorded: significantly inhibits
